Laboratory results published in US12382888B2, “Compositions and methods for modulating immunity in plants” (Boyce Thompson Institute for Plant Research, Inc., priority 2013, dated 2025).
Entries after “also recorded” stand apart in the source; their conditions may differ. Read-outs that look alike come from different tables or passages of the source.

Columns and labels:
[1] = tested on: Phytophthora infestans (US22); assay type: in vivo; settings: for resistance to US22 P. infestans: at the concentration tested; for resistance to P. infestans: root treatment, at the concentrations tested
[2] = tested on: Phytophthora infestans (US22); assay type: in vivo

CC1O[C@@H](O[C@H](C)CCCCCCC(=O)O)C(O)C[C@H]1O (stereo partly shown) [ascr #10]
resistance to US22 P. infestans ([1]; tomato cv. M82): not

CC1O[C@@H](O[C@H](C)CCCC/C=C/C(=O)O)C(O)C[C@H]1O (stereo partly shown) [ascr #3]
resistance of M82 against P. infestans ([1]; 0.01 μM): did not have a significant effect
P. infestans resistance in tomato ([1]; in vivo): −
resistance to P. infestans ([1]; tomato cv. M82): neither ascr #3 nor oscr #9 affected resistance

C[C@H](CCC(=O)O)O[C@@H]1O[C@@H](C)[C@H](O)C[C@H]1O [ascr #9]
P. infestans resistance in tomato ([1]; in vivo): +
resistance to US22 P. infestans (lesion size, sporangia number) ([1]; tomato cv. M82, root immersion 1 μM 48 hours before, 7 dpi): enhances resistance
resistance to P. infestans ([1]; tomato cv. M82): enhanced resistance

CC1O[C@@H](O[C@@H](C)CCCCCCCCC(=O)O)C(O)C[C@H]1O (stereo in doubt) [ascr #18, (10R)-(3′R,5′R-dihydroxy-6′S-methyl-(2H)-tetrahydropyran-2-yloxy)-undecanoic Acid]
P. infestans resistance in tomato ([1]; tomato (M82), root pretreatment with 0.01 or 1 μM ascaroside): +
resistance to P. infestans ([1]; tomato cv. M82): enhanced resistance
protection against US22 P. infestans (sporangia number, lesion size) ([1]; tomato cv. M82, roots pretreated 48 hours, 1 nM and 10 nM): strong protection
resistance to virulent US22 P. infestans ([1]; tomato cv. M82 and Rio Grande, root immersion 0.01 μM 48 hours before inoculation): enhances resistance
resistance to virulent US22 P. infestans (lesion size 5 dpi, sporangia 6 dpi) ([1]; tomato cv. Rio Grande, root immersion 0.01 μM 48 hours before): enhanced resistance
enhancement of resistance ([1]; tomato, 100 nM): reduced or lost
ascr #18 concentrations of maximal protection/resistance ([1]; tomato, P. infestans US22): 1 to 10 nM
concentration that enhanced resistance (as little as) ([1]; tomato, P. infestans US22): 10 pM
protection against P. infestans ([1]; tomato, higher concentrations): decreased
protection against virulent P. infestans ([2]; potato cv. Desiré, Eva or Yukon Gold, 10 nM by root immersion or foliar spray 48 hours prior): provided protection; also recorded: protects against P. infestans-induced late blight
resistance to virulent US22 P. infestans (lesion size 5 dpi) ([2]; potato cv. Désirée, root immersion 0.01 μM 48 hours before): enhanced resistance

CC1O[C@@H](OCCCCC(=O)O)C(O)C[C@H]1O (stereo partly shown) [oscr #9]
P. infestans resistance in tomato ([1]; in vivo): −
resistance to US22 P. infestans ([1]; tomato cv. M82): not
resistance to P. infestans ([1]; tomato cv. M82): neither ascr #3 nor oscr #9 affected resistance

CC1O[C@@H](O[C@H](C)CCCCCCCCC(=O)NCCO)C(O)C[C@H]1O (stereo partly shown) [easc #18]
resistance to virulent US22 P. infestans (lesion size 5 dpi, sporangia 6 dpi) ([1]; in vivo): enhanced resistance
